In patent US6077822A, “Drug salts” (Dumex-Alpharma A/S, priority 1993, dated 2000):

Tests used:
[1] = increased gastric pH; cited from earlier work
[2] = cited from earlier work
[3] = dissolution, paddle method USP XXII apparatus II; type: physicochemical; conditions: 900 ml 0.1 N HCl; tablet with 150 mg salt; 5-60 minutes; FIG. 1
Description: The paddle method is used in accordance with USP XXII, p. 1579, (apparatus II), with 900 ml 0.1 N HCl. […] Samples are taken after 5, 10, 20, 30 and 60 minutes and diluted.
The samples are analyzed spectrophotometrically at 345.9 nm in a Shimadzu 160 A photometer.

## CCO.C[C@H]1c2cccc(O)c2C(=O)C2=C(O)[C@]3(O)C(=O)C(C(N)=O)=C(O)[C@@H](N(C)C)[C@@H]3[C@@H](O)[C@@H]21.C[C@H]1c2cccc(O)c2C(=O)C2=C(O)[C@]3(O)C(=O)C(C(N)=O)=C(O)[C@@H](N(C)C)[C@@H]3[C@@H](O)[C@@H]21.Cl.Cl.O [doxycyclin hyclate, doxycyclin hydrochloride (hyclate)]
[1]
  effect of increased pH of the stomach on bioavailability / dissociation and absorption: independent of pH
[2]; 24/373 patients
  patients spontaneously reporting nausea and vomiting: 6.4%
[2]; 35/113 patients
  patients reporting nausea and vomiting after questioning: 31%
[2]; in vivo
  frequency of nausea and vomiting relative to other antibiotics: 3 fold

## C[C@H]1c2cccc(O)c2C(=O)C2=C(O)[C@]3(O)C(=O)C(C(N)=O)=C(O)[C@@H](N(C)C)[C@@H]3[C@@H](O)[C@@H]21.O [doxycyclin monohydrate]
[1]
  effect of increased pH of the stomach on bioavailability / dissociation and absorption: decreases the bioavailability

## Doxycyclin Sucrose-octa-O-sulphonic Acid Salt [Example 2]
[3]
  release versus time compared with Vibramycin: delayed release characteristics are similar
